pEC50, pKi: −log10 of the molar value. Peptide text beside a SMILES is read from it.
What was measured:
[1] = system: VGAT-ires-Cre mice, VTA/SN^VGAT neurons; assay: Locomotor activity; type: in vivo
[2] = system: AGRP-ires-cre mice, ARC^AgRP neurons with hM3Dq and KORD; assay: Feeding study with multiplexed KOR and hM3Dq DREADD; type: in vivo; details: hM3Dq and KORD in ARC^AgRP neurons; CNO 1mg/kg i.p.
KOR [3] = biological target: T1, KOR (Homo sapiens, UniProt P41145); assay: cell-based; details: for EC50: EC50(nM); for pEC50: pEC50 ± SEM
KORD (D138N hKOR) = KORD (D138N hKOR) (Homo sapiens, UniProt P41145, D138N); assay: cell-based; details: EC50(nM)
KOR [4] = biological target: T1, KOR; assay: [3H]-diprenorphine radioligand competition binding, WT KOR
KORD = KORD (Homo sapiens, UniProt P41145, D138N); assay: Radioligand competition binding, KORD

Row | SMILES | EC50 (KOR [3]) [nM] | pEC50 (KOR [3]) | EC50 (KORD (D138N hKOR)) [nM] | Emax (KOR [3]) [%] | other results
1 | C[N+]1([O-])CCN(C2=Nc3cc(Cl)ccc3Nc3ccccc32)CC1 [CNO, clozapine-N-oxide] |  |  |  |  | locomotor activity, same session ([1]; dual DREADD mice, 3.0 mg/kg CNO): significant locomotor depression; locomotor activity in control mice ([1]; mCherry in VTA/SN^VGAT neurons, 3.0 mg/kg i.p.): did not affect behavior; locomotor activity vs vehicle ([1]; mice expressing both KORD and hM3Dq in VTA/SN^VGAT neurons, 3.0 mg/kg, different testing sessions): decreased locomotor activity; light cycle food intake [2]: 0.75 ± 0.03 g
2 | CC[C@H](C)[C@H](NC(=O)[C@H](CCCN=C(N)N)NC(=O)[C@H](CCCN=C(N)N)NC(=O)[C@H](CC(C)C)NC(=O)[C@H](Cc1ccccc1)NC(=O)CNC(=O)CNC(=O)[C@@H](N)Cc1ccc(O)cc1)C(=O)N[C@@H](CCCN=C(N)N)C(=O)O [Dynorphin A(1-9)] (H-YGGFLRRIR-OH) | 127 | 6.89 | > 10000 |  | 
3 | CC[C@H](C)[C@H](NC(=O)[C@H](CCCNC(=N)N)NC(=O)[C@H](CCCNC(=N)N)NC(=O)[C@H](CC(C)C)NC(=O)[C@H](Cc1ccccc1)NC(=O)CNC(=O)CNC(=O)[C@@H](N)Cc1ccc(O)cc1)C(=O)N[C@@H](CCCNC(=N)N)C(=O)N1CCC[C@H]1C(=O)N[C@@H](CCCCN)C(=O)N[C@@H](CC(C)C)C(=O)N[C@@H](CCCCN)C(=O)O [Dynorphin A(1-13)] | 19 | 7.71 | > 10000 |  | pKi (KOR [4]): 8.50; pKi (KORD): 5.79
4 | CSCC[C@H](NC(=O)[C@H](Cc1ccccc1)NC(=O)CNC(=O)CNC(=O)[C@@H](N)Cc1ccc(O)cc1)C(=O)N[C@@H](CCCNC(=N)N)C(=O)N[C@@H](Cc1ccccc1)C(=O)O [Met-enkephalin-Arg-Phe] (H-YGGFMRF-OH) |  |  |  | 99 | 
5 | CSCC[C@H](NC(=O)[C@H](Cc1ccccc1)NC(=O)CNC(=O)CNC(=O)[C@@H](N)Cc1ccc(O)cc1)C(=O)N[C@@H](CCCNC(=N)N)C(=O)N[C@@H](CCCNC(=N)N)C(=O)N[C@H](C(=O)NCC(=O)N[C@@H](CCCNC(=N)N)C(=O)N1CCC[C@H]1C(=O)N[C@@H](CCC(=O)O)C(=O)N[C@@H](Cc1c[nH]c2ccccc12)C(=O)N[C@@H](Cc1c[nH]c2ccccc12)C(=O)N[C@@H](CCSC)C(=O)N[C@@H](CC(=O)O)C(=O)N[C@@H](Cc1ccc(O)cc1)C(=O)N[C@@H](CCC(N)=O)C(=O)N[C@@H](CCCNC(=N)N)C(=O)N[C@@H](Cc1ccc(O)cc1)C(=O)NCC(=O)NCC(=O)N[C@@H](Cc1ccccc1)C(=O)N[C@@H](CC(C)C)C(=O)O)C(C)C [Peptide E] (H-YGGFMRRVGRPEWWMDYQRYGGFL-OH) | 65 | 7.18 | > 10000 | 95 | 
6 | CC[C@H](C)[C@H](NC(=O)[C@H](CCCNC(=N)N)NC(=O)[C@H](CCCNC(=N)N)NC(=O)[C@H](CC(C)C)NC(=O)[C@H](Cc1ccccc1)NC(=O)CNC(=O)CNC(=O)[C@@H](N)Cc1ccc(O)cc1)C(=O)O [Dynorphin A(1-8)] |  |  |  | 94 | 
7 | CC[C@H](C)[C@H](NC(=O)[C@H](C)NC(=O)[C@H](CC(N)=O)NC(=O)[C@H](CCCCN)NC(=O)[C@H](Cc1ccccc1)NC(=O)[C@H](CC(C)C)NC(=O)[C@@H](NC(=O)[C@@H](NC(=O)[C@H](CC(C)C)NC(=O)[C@@H]1CCCN1C(=O)[C@@H](NC(=O)[C@H](CCC(N)=O)NC(=O)[C@H](CO)NC(=O)[C@H](CCCCN)NC(=O)[C@H](CCC(=O)O)NC(=O)[C@H](CO)NC(=O)[C@@H](NC(=O)[C@H](CCSC)NC(=O)[C@H](Cc1ccccc1)NC(=O)CNC(=O)CNC(=O)[C@@H](N)Cc1ccc(O)cc1)[C@@H](C)O)[C@@H](C)O)C(C)C)[C@@H](C)O)C(=O)N[C@H](C(=O)N[C@@H](CCCCN)C(=O)N[C@@H](CC(N)=O)C(=O)N[C@@H](C)C(=O)N[C@@H](Cc1ccc(O)cc1)C(=O)O)[C@@H](C)CC [β-Endorphin (1-27)] (H-YGGFMTSEKSQTPLVTLFKNAIIKNAY-OH; N-terminus and C-terminus assumed) | 700 | 6.15 | > 10000 | 100 | 
8 | CSCC[C@H](NC(=O)[C@H](Cc1ccccc1)NC(=O)CNC(=O)CNC(=O)[C@@H](N)Cc1ccc(O)cc1)C(=O)N[C@@H](CCCNC(=N)N)C(=O)N[C@@H](CCCNC(=N)N)C(=O)N[C@H](C(=O)NCC(=O)N[C@@H](CCCNC(=N)N)C(=O)N1CCC[C@H]1C(=O)N[C@@H](CCC(=O)O)C(=O)N[C@@H](Cc1c[nH]c2ccccc12)C(=O)N[C@@H](Cc1c[nH]c2ccccc12)C(=O)N[C@@H](CCSC)C(=O)N[C@@H](CC(=O)O)C(=O)N[C@@H](Cc1ccc(O)cc1)C(=O)N[C@@H](CCC(N)=O)C(=O)O)C(C)C [BAM 18] (H-YGGFMRRVGRPEWWMDYQ-OH) | 85 | 7.07 | > 10000 | 97 | 
9 | CC(C)C[C@H](NC(=O)[C@H](Cc1ccccc1)NC(=O)CNC(=O)CNC(=O)[C@@H](N)Cc1ccc(O)cc1)C(=O)N[C@@H](CCCNC(=N)N)C(=O)O [Dynorphin A(1-6)] (H-YGGFLR-OH) |  |  |  | 86 | 
10 | CSCC[C@H](NC(=O)[C@H](Cc1ccccc1)NC(=O)CNC(=O)CNC(=O)[C@@H](N)Cc1ccc(O)cc1)C(=O)N[C@@H](CCCNC(=N)N)C(=O)N[C@@H](CCCNC(=N)N)C(=O)N[C@H](C(=O)NCC(=O)N[C@@H](CCCNC(=N)N)C(=O)N1CCC[C@H]1C(=O)N[C@@H](CCC(=O)O)C(=O)O)C(C)C [BAM 12] (H-YGGFMRRVGRPE-OH) | 101 | 6.99 | > 10000 | 99 | 
11 | CC[C@H](C)[C@H](NC(=O)[C@H](C)NC(=O)[C@H](CC(N)=O)NC(=O)[C@H](CCCCN)NC(=O)[C@H](Cc1ccccc1)NC(=O)[C@H](CC(C)C)NC(=O)[C@@H](NC(=O)[C@@H](NC(=O)[C@H](CC(C)C)NC(=O)[C@@H]1CCCN1C(=O)[C@@H](NC(=O)[C@H](CCC(N)=O)NC(=O)[C@H](CO)NC(=O)[C@H](CCCCN)NC(=O)[C@H](CCC(=O)O)NC(=O)[C@H](CO)NC(=O)[C@@H](NC(=O)[C@H](CCSC)NC(=O)[C@H](Cc1ccccc1)NC(=O)CNC(=O)CNC(=O)[C@@H](N)Cc1ccc(O)cc1)[C@@H](C)O)[C@@H](C)O)C(C)C)[C@@H](C)O)C(=O)N[C@H](C(=O)N[C@@H](CCCCN)C(=O)N[C@@H](CC(N)=O)C(=O)N[C@@H](C)C(=O)N[C@@H](Cc1ccc(O)cc1)C(=O)N[C@@H](CCCCN)C(=O)N[C@@H](CCCCN)C(=O)NCC(=O)N[C@@H](CCC(=O)O)C(=O)O)[C@@H](C)CC [β-Endorphin (1-31)] | 706 | 6.15 | > 10000 | 100 | 
12 | CC(C)C[C@H](NC(=O)[C@H](Cc1ccccc1)NC(=O)CNC(=O)CNC(=O)[C@@H](N)Cc1ccc(O)cc1)C(=O)N[C@@H](CCCNC(=N)N)C(=O)N[C@@H](CCCNC(=N)N)C(=O)O [Dynorphin A(1-7)] |  |  |  | 97 | 
13 | CSCC[C@H](NC(=O)[C@H](Cc1ccccc1)NC(=O)CNC(=O)CNC(=O)[C@@H](N)Cc1ccc(O)cc1)C(=O)O [Met-enkephalin] |  |  |  | 79 | 
14 | CC[C@H](C)[C@H](NC(=O)[C@H](CCCNC(=N)N)NC(=O)[C@H](CCCNC(=N)N)NC(=O)[C@H](CC(C)C)NC(=O)[C@H](Cc1ccccc1)NC(=O)CNC(=O)CNC(=O)[C@@H](N)Cc1ccc(O)cc1)C(=O)N[C@@H](CCCNC(=N)N)C(=O)O [Dynorphin A(1-9)] (H-YGGFLRRIR-OH) |  |  |  | 93 | 
15 | CSCC[C@H](NC(=O)[C@H](Cc1ccccc1)NC(=O)CNC(=O)CNC(=O)[C@@H](N)Cc1ccc(O)cc1)C(=O)N[C@@H](CCCNC(=N)N)C(=O)N[C@@H](CCCNC(=N)N)C(=O)N[C@H](C(N)=O)C(C)C [Metorphamide] | 108 | 6.99 | > 10000 | 97 | 
16 | CSCC[C@H](NC(=O)[C@H](Cc1ccccc1)NC(=O)CNC(=O)CNC(=O)[C@@H](N)Cc1ccc(O)cc1)C(=O)N[C@@H](CCCNC(=N)N)C(=O)N[C@@H](CCCNC(=N)N)C(=O)N[C@H](C(=O)NCC(=O)N[C@@H](CCCNC(=N)N)C(=O)N1CCC[C@H]1C(=O)N[C@@H](CCC(=O)O)C(=O)N[C@@H](Cc1c[nH]c2ccccc12)C(=O)N[C@@H](Cc1c[nH]c2ccccc12)C(=O)N[C@@H](CCSC)C(=O)N[C@@H](CC(=O)O)C(=O)N[C@@H](Cc1ccc(O)cc1)C(=O)N[C@@H](CCC(N)=O)C(=O)N[C@@H](CCCNC(=N)N)C(=O)N[C@@H](Cc1ccc(O)cc1)C(=O)NCC(=O)O)C(C)C [BAM 22] (H-YGGFMRRVGRPEWWMDYQRYG-OH) | 93 | 7.03 | > 10000 | 95 | 
17 | CC(C)C[C@H](NC(=O)[C@H](Cc1ccccc1)NC(=O)CNC(=O)CNC(=O)[C@@H](N)Cc1ccc(O)cc1)C(=O)N[C@@H](CCCNC(=N)N)C(=O)N[C@@H](CCCCN)C(=O)N[C@@H](Cc1ccc(O)cc1)C(=O)N1CCC[C@H]1C(=O)N[C@@H](CCCCN)C(=O)O [α-Neoendrophin] (H-YGGFLRKYPK-OH) | 64 | 7.19 | > 10000 | 95 | 
18 | CC(C)C[C@H](NC(=O)[C@H](Cc1ccccc1)NC(=O)CNC(=O)CNC(=O)[C@@H](N)Cc1ccc(O)cc1)C(=O)N[C@@H](CCCNC(=N)N)C(=O)N[C@@H](CCCNC(=N)N)C(=O)N[C@@H](CCC(N)=O)C(=O)N[C@@H](Cc1ccccc1)C(=O)N[C@@H](CCCCN)C(=O)N[C@H](C(=O)N[C@H](C(=O)N[C@H](C(=O)O)[C@@H](C)O)C(C)C)C(C)C [Dynorphin B(1-13)] |  |  |  | 100 | 

— article PMC4441592 (Neuron, 2015)
